Experimental data published in patent US20210017607A1, “Methods of Predicting Responsiveness to Cancer Therapies” (The University of Chicago, priority 2019, published 2021).
Square brackets hold non-standard residues; d marks the D form. Peptide text beside a SMILES is read from it. * marks the point of attachment. dPhe(4-NHCONH2) = NC(=O)Nc1ccc(C[C@@H](N)C(=O)O)cc1; Dihydroorotyl(S) = O=C1C[C@@H](C(=O)*)NC(=O)N1; dPhe(4-Cl) = N[C@H](Cc1ccc(Cl)cc1)C(=O)O; Phe(4-NH2) = Nc1ccc(C[C@H](N)C(=O)O)cc1; d2Nal = N[C@H](Cc1ccc2ccccc2c1)C(=O)O; Lys(iPr) = CC(C)NCCCC[C@H](N)C(=O)O; d3Pal = N[C@H](Cc1cccnc1)C(=O)O

How the values were obtained:
[1] = system: Myc-CAP (STING^lo) tumors; assay: Myc-CAP syngeneic tumor growth; assay type: in vivo, mouse; conditions: immunocompetent syngeneic mice
Experimental: FIGS. 25A and 25B. […] (25A-25B) Myc-CAP (STING^lo) tumor-bearing syngeneic mice were treated with the indicated drug(s) until untreated tumors reached approx. 2500 mm^3. Tumor volume curves for duration of treatment are shown.
FIGS. 26A-26D. […] Immunodeficient athymic nude (26A) and NOD-SCID (26B) mice were engrafted with Myc-CAP (STING^lo) tumors and treated with the indicated drug(s) until untreated tumors reached approx. 2000 mm^3. Tumor volume curves for duration of treatment are shown. For 26A-26B, n=3-4 mice per group. (26C-26D) Single-cell suspensions were generated from harvested tumors and analyzed by flow cytometry for the indicated immune cell populations and their activation states. Data are represented relative to CD45+ immune cells. For 26C-26D, n=3-5 animals per treatment group from 2 independent experiments. Significance/p-values were calculated by […].
FIGS. 29A-29M. […] Myc-CAP cancer cells were treated with the indicated drugs singly or in combination for 36 hours. (29A) Cells were stained with anti-mouse specific p-γH2AX antibody and a fluorescently labeled secondary antibody for determination of DNA DSBs, which were quantified by confocal microscopy. (29B) Protein extracts from cells in 29A were analyzed for the indicated pharmacodynamic biomarkers by western blotting; (29C) Annexin V-PI staining was done to assess frequency of live cells (Annexin V^− PI^−) following drug treatment. (29D) Ultracentrifugation was utilized to purify microvesicles (MVs) from supernatants in treatment groups in (29A) and associated DNA DSBs was quantified by Nanodrop®. Independent experiments n=2. (29E) Ultracentrifugation was utilized to purify MVs from supernatants in indicated treatment groups in FIG. 17A, and associated DNA DSBs were quantified by Nanodrop®; n=2 independent experiments. (29F) Syngeneic mice were engrafted with Myc-CAP (STING^lo) cells, and tumors were harvested when the tumor volume reached 400 mm^3. Single cell suspensions of the tumors were treated with the indicated drug(s), in the presence or absence of GW4869 (MV biogenesis inhibitor). (29G) Bone marrow derived macrophage (BMDMs) were co-cultured for 30 hours with supernatants (−/+ exogenous 50 units of DNase I pre-treatment for 30 minutes) from Myc-CAP cells that were treated with the indicated drug(s) for 36 hours. (29H) cGAMP (10 μg/mL) was pre-incubated with 10 units of DNAse I or mock control for 30 minutes and then added to BMDMs for 30 hours. (29I-29L) STING^+/+/STING^−/− BMDMs were co-cultured for 36 hours with supernatants from Myc-CAP and B6-Myc cancer cells that were treated with the indicated drug(s) for 36 hours. Supernatants were collected from 29F-29L at the end of treatment and analyzed for IFNβ1 by ELISA. (29M) Myc-CAP (STING^lo) tumor-bearing mice were treated with the indicated drug(s) until tumors first reached approx. 2500 mm^3. For the degerelix/rucaparib/buparlisib combination, additional cohorts of mice underwent concomitant treatment with STING antagonist H-151 or GW4869. Tumor volume was recorded daily for duration of experiment. For in vitro experiments, n=2 independent experiments and for in vivo experiments n=3-4 animals /group.

[2] = system: Myc-CAP (STING^lo) tumors; assay: Immune profiling of Myc-CAP tumors (flow cytometry, qRT-PCR); assay type: in vivo, mouse; conditions: degarelix for 10 days
Experimental: FIGS. 24A-24G. […] Myc-CAP (STING^lo) tumor-bearing syngeneic mice were treated with degarelix (chemical castration) for 10 days. At the end of treatment, tumors were harvested and analyzed by flow cytometry for infiltration of CD45+ immune cells (24A), macrophages (24B) and CD4/CD8 T cells (24C-24D). Mean fluorescence intensity (MFI) is depicted for PD-Ll expression on CD45−/CD45+ cells (24E-24F) and TAMs (24G) within the TME; n=3-5 animals/group; Significance/p-values were calculated by Un-paired t-test.
FIGS. 26A-26D. […] (26C-26D) Single-cell suspensions were generated from harvested tumors and analyzed by flow cytometry for the indicated immune cell populations and their activation states. […] Significance/p-values were calculated by […].
FIGS. 27A-27D. […] Single-cell suspensions were generated from harvested tumors and analyzed by flow cytometry for CD4 infiltration (27A) and activation (27C). (27B, 27D) Single-cell suspensions were generated from harvested tumors and analyzed by flow cytometry for the indicated immune cell populations and their activation states. […] Significance/p-values were calculated by one-way ANOVA.
FIGS. 28A and 28B. […] (28B) Single-cell suspensions were generated from harvested tumors and analyzed by flow cytometry for macrophage (F4/80+) Arginase I expression. n=3 animals/group; Significance/p-values were calculated by one-way ANOVA. […]

## CC(=O)N[C@H](Cc1ccc2ccccc2c1)C(=O)N[C@H](Cc1ccc(Cl)cc1)C(=O)N[C@H](Cc1cccnc1)C(=O)N[C@@H](CO)C(=O)N[C@@H](Cc1ccc(NC(=O)[C@@H]2CC(=O)NC(=O)N2)cc1)C(=O)N[C@H](Cc1ccc(NC(N)=O)cc1)C(=O)N[C@@H](CC(C)C)C(=O)N[C@@H](CCCCNC(C)C)C(=O)N1CCC[C@H]1C(=O)N[C@H](C)C(N)=O [degarelix] (Ac-[d2Nal][dPhe(4-Cl)][d3Pal]S[Phe(4-NH2)](Dihydroorotyl(S))[dPhe(4-NHCONH2)]L[Lys(iPr)]P[dA]-NH2)
[1]
  tumor growth response: not observed
[2]
  immune infiltration and PD-L1 expression within the TME after chemical castration: increases macrophage and CD4+ T cell infiltration and PD-L1 expression
